Source: US11912663B2, “Multi-targeted tyrosine kinase inhibitors and their pharmaceutical uses” (Shanghai AB PharmaTech Ltd., priority 2021, dated 2024)

Key:
[1] = system: pancreatic cancer cell line (BXPC3); experiment: tumor cell proliferation inhibition (CTG), pancreatic cancer cell line; format: cell-based; conditions: Homo sapiens, BXPC-3, 72 hours
[2] = system: lung cancer cell line (A549); experiment: tumor cell proliferation inhibition (CTG), lung cancer cell line; format: cell-based; conditions: Homo sapiens, 72 hours
[3] = system: kidney cancer cell line (Caki-1); experiment: tumor cell proliferation inhibition (CTG), kidney cancer cell line; format: cell-based; conditions: Homo sapiens, 72 hours, read-out: Caki-1 (renal cancer) IC50
[4] = system: hepatocellular carcinoma cell line (Hep3B 2.1-7); experiment: tumor cell proliferation inhibition (CTG), hepatocellular carcinoma cell line; format: cell-based; conditions: Homo sapiens, 72 hours
[5] = system: gastric cancer cell line (SNU16); experiment: tumor cell proliferation inhibition (CTG), gastric cancer cell line; format: cell-based; conditions: Homo sapiens, SNU-16, 72 hours, read-out: SUN16 IC50
[6] = system: cervical cancer cell lines (Hela); experiment: tumor cell proliferation inhibition (CTG), cervical cancer cell line; format: cell-based; conditions: Homo sapiens, 72 hours
[7] = system: leukemia cell line (K562); experiment: tumor cell proliferation inhibition (CTG), leukemia cell line; format: cell-based; conditions: Homo sapiens, 72 hours
[8] = system: prostatic cancer (PC-3); experiment: tumor cell proliferation inhibition (CTG), PC-3; format: cell-based; conditions: 72 hours
[9] = target: VEGFR1 (FLT1) (Homo sapiens (Human), UniProt P17948); experiment: kinase inhibition, Mobility-Shift Assay; format: biochemical; conditions: 278 μM ATP
[10] = target: VEGFR2 (KDR) (Homo sapiens (Human), UniProt P35968); experiment: kinase inhibition, Mobility-Shift Assay; format: biochemical; conditions: VEGFR2, 92 μM ATP
[11] = target: VEGFR3 (FLT4) (Homo sapiens (Human), UniProt P35916); experiment: kinase inhibition, Mobility-Shift Assay; format: biochemical; conditions: 84 μM ATP
[12] = target: FGFR2 (Homo sapiens (Human), UniProt P21802); experiment: kinase inhibition, Mobility-Shift Assay; format: biochemical; conditions: 1.9 μM ATP
[13] = target: RET (Homo sapiens (Human), UniProt P07949); experiment: kinase inhibition, Mobility-Shift Assay; format: biochemical; conditions: 23 μM ATP
[14] = target: hERG potassium channels (Homo sapiens (Human), UniProt Q12809); experiment: in vitro inhibitory effect of hERG, whole-cell patch clamp; format: cell-based; conditions: whole-cell recording, room temperature
[15] = MTD toxicity test in rats; format: in vivo; conditions: 150 mg/kg; for MTD toxicity test, clinical outcome: rat, in vivo; for autopsy results of organs: rats, QD, 14 days, heart, liver, lungs, kidneys, stomach, intestines and other organs
[16] = system: BXPC3, SNU16, Hep3B 2.1-7 subcutaneous tumors; experiment: tumor suppression in nude mice with subcutaneously transplanted tumors; format: in vivo; conditions: BXPC3, SNU16, Hep3B 2.1-7 transplants, within 3-4 weeks
From the text: These preferred compounds (e.g., IIIb-08, IIIb-09, IIIb-45, IIIb-50, IIIb-55, IIIb-56, IIIb-57, IIIb-58, IIIb-60, IIIb-61, IIIb-65) are currently being used to […] in nude mice subcutaneously transplanted with pancreatic cancer cell line (BXPC3), gastric cancer cell line (SNU16), liver cancer cell line (Hep3B 2.1-7) and other tumor suppressive effects have been observed in vivo, the tumor suppression rate of subcutaneous tumors in nude mice could reach 80-110% within 3-4 weeks. […] Therefore, the preferred compounds “IIIb-08, IIIb-09, IIIb-45, IIIb-50, IIIb-55, IIIb-56, IIIb-57, IIIb-58, IIIb-60, IIIb-61, IIIb-65” designed and synthesized by the present invention not only have better inhibitory activity, but also have better safety and drug-forming properties, which are valuable for further preclinical studies such as pharmacotoxicology and clinical trials.

FGFR2, sequence (P21802 22-821): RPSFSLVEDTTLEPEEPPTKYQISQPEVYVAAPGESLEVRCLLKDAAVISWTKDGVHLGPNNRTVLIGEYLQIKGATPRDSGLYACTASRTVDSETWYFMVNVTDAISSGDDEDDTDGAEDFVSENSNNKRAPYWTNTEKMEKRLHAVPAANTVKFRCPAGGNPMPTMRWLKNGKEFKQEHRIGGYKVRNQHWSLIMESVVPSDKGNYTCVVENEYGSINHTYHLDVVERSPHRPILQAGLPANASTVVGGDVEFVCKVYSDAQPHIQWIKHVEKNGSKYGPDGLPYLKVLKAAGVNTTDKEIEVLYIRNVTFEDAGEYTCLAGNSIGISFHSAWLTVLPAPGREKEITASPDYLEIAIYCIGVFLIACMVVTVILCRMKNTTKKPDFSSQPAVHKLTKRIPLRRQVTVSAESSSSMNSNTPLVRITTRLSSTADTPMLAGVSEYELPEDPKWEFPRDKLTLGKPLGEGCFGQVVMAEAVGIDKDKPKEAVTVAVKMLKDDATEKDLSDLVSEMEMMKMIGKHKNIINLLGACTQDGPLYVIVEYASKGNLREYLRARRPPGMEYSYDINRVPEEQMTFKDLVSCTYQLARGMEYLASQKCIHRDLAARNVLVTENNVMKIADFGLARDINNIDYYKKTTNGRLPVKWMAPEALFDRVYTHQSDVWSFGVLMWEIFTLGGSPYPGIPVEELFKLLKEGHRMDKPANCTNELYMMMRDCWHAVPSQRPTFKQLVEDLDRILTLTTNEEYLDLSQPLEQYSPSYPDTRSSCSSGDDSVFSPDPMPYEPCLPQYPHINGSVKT
RET, sequence (P07949 29-1114): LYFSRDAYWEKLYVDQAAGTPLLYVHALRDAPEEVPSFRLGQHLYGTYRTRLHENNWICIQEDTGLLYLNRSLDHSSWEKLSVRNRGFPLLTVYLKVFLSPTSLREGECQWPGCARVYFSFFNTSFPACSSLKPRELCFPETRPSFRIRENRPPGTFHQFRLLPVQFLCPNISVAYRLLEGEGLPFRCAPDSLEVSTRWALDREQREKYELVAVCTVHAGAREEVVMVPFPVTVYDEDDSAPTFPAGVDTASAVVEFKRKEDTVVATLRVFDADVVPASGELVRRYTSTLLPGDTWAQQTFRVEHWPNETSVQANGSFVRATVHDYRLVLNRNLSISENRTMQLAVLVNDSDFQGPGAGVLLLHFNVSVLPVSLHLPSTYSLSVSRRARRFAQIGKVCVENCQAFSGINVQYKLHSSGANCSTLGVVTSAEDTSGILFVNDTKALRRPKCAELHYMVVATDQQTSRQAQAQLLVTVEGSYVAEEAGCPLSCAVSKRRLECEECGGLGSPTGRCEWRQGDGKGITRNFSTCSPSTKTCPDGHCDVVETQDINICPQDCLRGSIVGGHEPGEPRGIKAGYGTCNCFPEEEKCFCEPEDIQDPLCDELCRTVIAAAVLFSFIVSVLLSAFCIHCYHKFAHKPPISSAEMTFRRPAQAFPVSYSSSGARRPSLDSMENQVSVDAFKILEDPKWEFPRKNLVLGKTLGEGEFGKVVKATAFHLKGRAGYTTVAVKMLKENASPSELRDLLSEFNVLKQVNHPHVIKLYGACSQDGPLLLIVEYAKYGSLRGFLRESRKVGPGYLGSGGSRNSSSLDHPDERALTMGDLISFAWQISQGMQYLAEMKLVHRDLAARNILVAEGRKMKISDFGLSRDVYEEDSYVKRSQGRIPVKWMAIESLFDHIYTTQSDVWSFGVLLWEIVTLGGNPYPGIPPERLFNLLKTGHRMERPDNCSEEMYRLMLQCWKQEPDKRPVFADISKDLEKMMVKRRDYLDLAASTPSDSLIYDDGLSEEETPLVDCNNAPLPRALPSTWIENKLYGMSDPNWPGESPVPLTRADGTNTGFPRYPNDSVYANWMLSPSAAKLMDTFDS
VEGFR2 (KDR), sequence (P35968 20-1356): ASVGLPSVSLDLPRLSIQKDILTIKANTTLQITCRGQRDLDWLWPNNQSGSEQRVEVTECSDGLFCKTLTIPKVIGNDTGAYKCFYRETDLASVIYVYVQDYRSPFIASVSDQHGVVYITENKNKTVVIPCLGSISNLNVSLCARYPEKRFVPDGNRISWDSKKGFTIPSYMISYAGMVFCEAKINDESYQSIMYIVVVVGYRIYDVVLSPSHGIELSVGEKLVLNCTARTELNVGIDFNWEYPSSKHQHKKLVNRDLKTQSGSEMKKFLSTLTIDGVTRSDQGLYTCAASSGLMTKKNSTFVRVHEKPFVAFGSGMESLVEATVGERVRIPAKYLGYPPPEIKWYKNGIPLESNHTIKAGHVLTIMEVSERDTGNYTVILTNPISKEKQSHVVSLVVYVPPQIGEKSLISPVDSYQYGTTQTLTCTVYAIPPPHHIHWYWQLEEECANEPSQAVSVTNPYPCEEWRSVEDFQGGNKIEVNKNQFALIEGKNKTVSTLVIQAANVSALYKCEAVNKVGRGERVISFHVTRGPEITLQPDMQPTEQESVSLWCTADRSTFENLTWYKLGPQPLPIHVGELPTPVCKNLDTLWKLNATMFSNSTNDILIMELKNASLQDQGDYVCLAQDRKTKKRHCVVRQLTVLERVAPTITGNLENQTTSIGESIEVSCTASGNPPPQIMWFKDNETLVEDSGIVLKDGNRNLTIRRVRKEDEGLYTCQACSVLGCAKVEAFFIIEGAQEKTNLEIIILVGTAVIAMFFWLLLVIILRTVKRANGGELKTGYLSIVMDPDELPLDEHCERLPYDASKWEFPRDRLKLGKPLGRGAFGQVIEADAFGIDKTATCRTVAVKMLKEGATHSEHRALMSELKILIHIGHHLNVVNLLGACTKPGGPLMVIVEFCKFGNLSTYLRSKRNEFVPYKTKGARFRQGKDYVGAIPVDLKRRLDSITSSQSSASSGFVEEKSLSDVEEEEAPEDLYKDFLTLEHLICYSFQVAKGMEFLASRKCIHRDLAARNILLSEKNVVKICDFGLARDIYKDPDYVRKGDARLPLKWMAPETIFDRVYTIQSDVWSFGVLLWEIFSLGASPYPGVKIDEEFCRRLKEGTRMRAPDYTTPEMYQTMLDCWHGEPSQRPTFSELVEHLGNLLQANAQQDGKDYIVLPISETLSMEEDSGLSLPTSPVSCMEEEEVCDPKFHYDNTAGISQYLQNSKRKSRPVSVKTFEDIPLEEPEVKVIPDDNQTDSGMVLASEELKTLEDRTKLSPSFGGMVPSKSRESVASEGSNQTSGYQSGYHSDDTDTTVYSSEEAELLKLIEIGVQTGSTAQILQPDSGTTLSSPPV
hERG potassium channels, sequence (Q12809 whole entry): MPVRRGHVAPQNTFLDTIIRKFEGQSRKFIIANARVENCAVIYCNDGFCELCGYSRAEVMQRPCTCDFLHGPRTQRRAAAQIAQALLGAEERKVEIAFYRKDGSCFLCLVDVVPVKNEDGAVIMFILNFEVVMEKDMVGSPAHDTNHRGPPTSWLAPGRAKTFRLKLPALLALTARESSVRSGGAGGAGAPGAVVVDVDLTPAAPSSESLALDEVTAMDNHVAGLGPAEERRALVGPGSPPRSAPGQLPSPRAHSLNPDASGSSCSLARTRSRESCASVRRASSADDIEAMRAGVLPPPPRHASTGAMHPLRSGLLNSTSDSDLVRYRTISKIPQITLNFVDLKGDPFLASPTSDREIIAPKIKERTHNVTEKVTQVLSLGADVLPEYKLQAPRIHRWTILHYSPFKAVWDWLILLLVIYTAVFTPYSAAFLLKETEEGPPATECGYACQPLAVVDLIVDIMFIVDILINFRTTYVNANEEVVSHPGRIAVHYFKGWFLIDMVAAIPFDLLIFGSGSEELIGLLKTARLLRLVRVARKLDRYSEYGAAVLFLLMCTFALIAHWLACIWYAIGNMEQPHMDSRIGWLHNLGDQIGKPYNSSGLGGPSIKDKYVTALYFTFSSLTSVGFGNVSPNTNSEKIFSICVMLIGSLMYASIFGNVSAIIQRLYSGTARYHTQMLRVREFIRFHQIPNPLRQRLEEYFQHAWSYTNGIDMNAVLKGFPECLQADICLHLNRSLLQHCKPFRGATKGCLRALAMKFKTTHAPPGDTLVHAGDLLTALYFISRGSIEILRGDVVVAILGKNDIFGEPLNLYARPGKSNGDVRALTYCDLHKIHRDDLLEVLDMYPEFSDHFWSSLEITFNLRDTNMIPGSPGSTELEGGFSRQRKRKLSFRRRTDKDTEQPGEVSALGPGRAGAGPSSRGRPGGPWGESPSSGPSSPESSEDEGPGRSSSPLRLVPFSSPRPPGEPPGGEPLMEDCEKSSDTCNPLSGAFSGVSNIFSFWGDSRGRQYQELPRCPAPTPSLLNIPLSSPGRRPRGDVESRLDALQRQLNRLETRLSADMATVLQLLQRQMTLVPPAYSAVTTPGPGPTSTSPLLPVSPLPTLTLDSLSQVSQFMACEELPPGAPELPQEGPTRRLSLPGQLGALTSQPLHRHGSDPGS

| Compound | IC50 [1] [nM] | IC50 [2] [nM] | IC50 [3] [nM] | IC50 [4] [nM] | IC50 [5] [nM] | IC50 [6] [nM] | IC50 [7] [nM] | IC50 [8] [nM] | IC50 [9] [nM] | IC50 [10] [nM] | IC50 [11] [nM] | IC50 [12] [nM] | IC50 [13] [nM] | IC50 [14] [nM] | MTD toxicity test, clinical outcome [15] | autopsy results of organs [15] | tumor suppression rate of subcutaneous tumors [16] |
| --- | --- | --- | --- | --- | --- | --- | --- | --- | --- | --- | --- | --- | --- | --- | --- | --- | --- |
| NC(=O)c1cc2c(Oc3c(F)cc(NC(=O)NC4CC4)c(Cl)c3F)ccnc2cc1OCCO [IIIb-60] | < 5000 | < 2500 | < 2500 | < 2500 | < 5000 | < 5000 | < 5000 | 5000 to 10000 | < 5 | < 5 | < 5 | < 50 | < 5 | > 30000 | no abnormalities such as death | did not reveal any abnormal changes | 80-110% |
| N#CCOc1cc2nccc(Oc3c(F)cc(NC(=O)NC4CC4)c(Cl)c3F)c2cc1C(N)=O [IIIb-58] | < 5000 | < 2500 | < 2500 | < 2500 | < 5000 | < 5000 | < 5000 | 5000 to 10000 | < 5 | < 5 | < 5 | < 50 | < 5 | > 30000 | no abnormalities such as death | did not reveal any abnormal changes | 80-110% |
| NC(=O)c1cc2c(Oc3c(F)cc(NC(=O)NC4CC4)c(Cl)c3F)ccnc2cc1OCCF [IIIb-55] | < 5000 | < 2500 | < 2500 | < 2500 | < 5000 | < 5000 | < 5000 | 5000 to 10000 | < 5 | < 5 | < 5 | < 50 | 5 to 10 | > 30000 | no abnormalities such as death | did not reveal any abnormal changes | 80-110% |
| COc1cc2nccc(Oc3c(F)cc(NC(=O)NC4CC4)c(Cl)c3F)c2cc1C(=O)NCC#N [IIIb-45] | < 5000 | < 2500 | < 2500 | < 2500 | < 5000 | < 5000 | < 5000 | 5000 to 10000 | < 5 | < 5 | < 5 | < 50 | < 5 | > 30000 | no abnormalities such as death | did not reveal any abnormal changes | 80-110% |
| NC(=O)c1cc2c(Oc3c(F)cc(NC(=O)NC4CC4)c(Cl)c3F)ccnc2cc1OCC(F)F [IIIb-56] | < 5000 | < 2500 | < 2500 | < 2500 | < 5000 | < 5000 | < 5000 | 5000 to 10000 | < 5 | < 5 | < 5 | < 50 | < 5 | > 30000 | no abnormalities such as death | did not reveal any abnormal changes | 80-110% |
| COc1cc2nccc(Oc3c(F)cc(NC(=O)NC4CC4)c(Cl)c3F)c2cc1C(=O)NCC(F)F [IIIb-08] | < 5000 | < 2500 | < 2500 | < 2500 | < 5000 | < 5000 | < 5000 | 5000 to 10000 | < 5 | < 5 | < 5 | < 50 | < 5 | > 30000 | no abnormalities such as death | did not reveal any abnormal changes | 80-110% |
| COc1cc2nccc(Oc3c(F)cc(NC(=O)NC4CC4)c(Cl)c3F)c2cc1C(=O)NCCC#N [IIIb-50] | < 5000 | < 2500 | < 2500 | < 2500 | < 5000 | < 5000 | < 5000 | 5000 to 10000 | < 5 | < 5 | < 5 | < 50 | < 5 | > 30000 | no abnormalities such as death | did not reveal any abnormal changes | 80-110% |
| COc1cc2nccc(Oc3c(F)cc(NC(=O)NC4CC4)c(Cl)c3F)c2cc1C(=O)NCC(F)(F)F [IIIb-09] | < 5000 | < 2500 | < 2500 | < 2500 | < 5000 | < 5000 | < 5000 | > 10000 | 5 to 10 | < 5 | < 5 | 50 to 100 | 5 to 10 | > 30000 | no abnormalities such as death | did not reveal any abnormal changes | 80-110% |
| N#CCCOc1cc2nccc(Oc3c(F)cc(NC(=O)NC4CC4)c(Cl)c3F)c2cc1C(N)=O [IIIb-65] | < 5000 | < 2500 | < 2500 | < 2500 | < 5000 | < 5000 | < 5000 | 5000 to 10000 | < 5 | < 5 | < 5 | < 50 | < 5 | > 30000 | no abnormalities such as death | did not reveal any abnormal changes | 80-110% |
| NC(=O)c1cc2c(Oc3c(F)cc(NC(=O)NC4CC4)c(Cl)c3F)ccnc2cc1OCC1(N)CC1 [IIIb-61] | < 5000 | < 2500 | < 2500 | < 2500 | < 5000 | < 5000 | < 5000 | 5000 to 10000 | < 5 | < 5 | < 5 | < 50 | < 5 | > 30000 | no abnormalities such as death | did not reveal any abnormal changes | 80-110% |
| NC(=O)c1cc2c(Oc3c(F)cc(NC(=O)NC4CC4)c(Cl)c3F)ccnc2cc1OCC(F)(F)F [IIIb-57] | < 5000 | < 2500 | < 2500 | < 2500 | < 5000 | < 5000 | < 5000 | 5000 to 10000 | < 5 | < 5 | < 5 | < 50 | < 5 | > 30000 | no abnormalities such as death | did not reveal any abnormal changes | 80-110% |
